Assay [1] concerns AKR1B1. Further details: method as in earlier work. The following applies: glyceraldehyde as substrate; cited from earlier work.
For assay [2], the target named is T1, AKR1B1 (Homo sapiens, UniProt P15121).
T1 construct: 6xHis; made in house; host or cells: E. coli BL21 (DE3)
Kind of assay: AKR1B1-catalysed glyceraldehyde (GA) reduction, NADPH absorbance decrease at 340 nm. The assay is classed as biochemical. As to conditions: for IC50 / Ki: GA at KM 50 μM, mean ± SD; for IC50: 200 μM NADPH, pH 7.4, 37 °C, at least three experiments; for Ki: Morrison equation for tight-binding inhibitors; for mode of inhibition with respect to the co-factor binding site for NADPH: glyceraldehyde reduction, IC50 as a function of NADPH concentration. The procedure: (§1) The recombinant enzymes AKR1A1, AKR1B1 and AKR1B10 were prepared in an Escherichia coli expression system according to previously published methods: AKR1A1 was a gentle gift from Prof. Dr. Vladimir Wsol[63]; AKR1B1 was a friendly gift from Dr. Nina Kassner; information about production and purification of AKR1B10 has been published before. Genetic information on the specific inserts of all obtained plasmids was verified by sequencing (MWG Eurofins). The plasmids were then transformed into E. coli BL21 (DE3) cells. For over-expression of 6 × His-tagged enzymes, a 400-ml culture (containing the appropriate antibiotic; plasmid dependent) was grown to an optical density of 0.6 at 600 nm at 37 °C. Protein over-expression was induced by adding isopropyl-1-thio-galactopyranoside (IPTG) to the culture medium (final concentration of 1 mM). After 3 h, cells were harvested by centrifugation (6000 g, 15 min) and re-suspended in 20 ml PBS-I buffer (20 mM NaH2PO4, 500 mM NaCl, 10 mM imidazole, pH 7.4). Cell disruption was performed by ultrasonication with cooling on ice, to avoid heating. The sample was subsequently centrifuged at 100,000 g at 4 °C for 1 h. The obtained supernatants, containing the target protein were purified using Ni-affinity chromatography on an ÄKTA-Purifier System (Amersham Pharmacia Biotech, Uppsala, Sweden). Purification progress was monitored by SDS-PAGE of the obtained fractions (not shown). Enzyme concentrations were determined using a Qubit 2.0 fluorometric quantitation system (Life Technologies, Carlsbad, CA, USA) according to the manufacturer’s instructions.
Catalytic properties were determined by measuring the decrease in absorbance at 340 nm at 37 °C (Cary 100 scan photometer, Varian, Pal Alto, CA, USA). […] Final enzyme concentrations in the assay ranged from 583 nM (AKR1B10) to 712 nM (AKR1B1). For inhibitor selectivity studies on AKR1A1, AKR1B1 and AKR1B10 stock solutions of the inhibitors XN, XI and 8-PN were prepared in dimethyl sulfoxide (DMSO). The final concentration of DMSO in the assay was ≤0.5%. Activity measurements were started without pre-incubation by adding an appropriate amount of enzyme. When collecting data for dose–response curves, initial velocities of the glyceraldehyde reduction (concentration at KM; enzyme specific) in the presence of inhibitors were assayed as described above. The percentage of inhibition was calculated considering the activity in the absence of inhibitor to be 100%.
(§2) Initially, the half maximal inhibitory concentrations (IC50 values) were determined for each inhibitor in the presence of each enzyme, using the shared substrate glyceraldehyde (set to their specific Km; 3.6 mM, 50 µM and 4 mM for AKR1A1, AKR1B1 and AKR1B10, respectively) to assess specificity among the structurally similar members of the AKR-superfamily. For IC50 determination, experimental data were normalised and fitted to a sigmoidal curve as implemented in GraphPad6 (GraphPad Software Inc., La Jolla, CA, USA). Whenever tight-binding inhibition was observed, the inhibition constant Ki was determined by fitting inhibition data to the Morrison equation as implemented in GraphPad Prism6 (GraphPad Software Inc., La Jolla, CA, USA)[65], using non-linear regression.

Assay [3] addresses T2, AKR1B10 (Homo sapiens, UniProt O60218).
T2 construct: 6xHis; made in house; host or cells: E. coli BL21 (DE3)
Kind of assay: AKR1B10-catalysed glyceraldehyde (GA) reduction, NADPH absorbance decrease at 340 nm. The assay is classed as biochemical. The following applies: GA at KM 4 mM, mean ± SD; for IC50: 200 μM NADPH, pH 7.4, 37 °C, at least three experiments; for Ki: Morrison equation for tight-binding inhibitors. The procedure:
as §1
(§3) Catalytic properties were determined by measuring the decrease in absorbance at 340 nm at 37 °C (Cary 100 scan photometer, Varian, Pal Alto, CA, USA). A reaction mixture without inhibitor consisted of different concentrations of substrate (see Table 1 for details), 200 μM NADPH, 0.1 M NaH2PO4 buffer (pH 7.4) and an appropriate amount of enzyme in a total assay volume of 0.8 ml. Final enzyme concentrations in the assay ranged from 583 nM (AKR1B10) to 712 nM (AKR1B1). For inhibitor selectivity studies on AKR1A1, AKR1B1 and AKR1B10 stock solutions of the inhibitors XN, XI and 8-PN were prepared in dimethyl sulfoxide (DMSO). The final concentration of DMSO in the assay was ≤0.5%. Activity measurements were started without pre-incubation by adding an appropriate amount of enzyme. When collecting data for dose–response curves, initial velocities of the glyceraldehyde reduction (concentration at KM; enzyme specific) in the presence of inhibitors were assayed as described above. The percentage of inhibition was calculated considering the activity in the absence of inhibitor to be 100%.
as §2

For assay [4], the target named is T3, AKR1A1 (Homo sapiens, UniProt P14550).
T3 construct: 6xHis; made in house; host or cells: E. coli BL21 (DE3)
T3 sequence (P14550 1-325): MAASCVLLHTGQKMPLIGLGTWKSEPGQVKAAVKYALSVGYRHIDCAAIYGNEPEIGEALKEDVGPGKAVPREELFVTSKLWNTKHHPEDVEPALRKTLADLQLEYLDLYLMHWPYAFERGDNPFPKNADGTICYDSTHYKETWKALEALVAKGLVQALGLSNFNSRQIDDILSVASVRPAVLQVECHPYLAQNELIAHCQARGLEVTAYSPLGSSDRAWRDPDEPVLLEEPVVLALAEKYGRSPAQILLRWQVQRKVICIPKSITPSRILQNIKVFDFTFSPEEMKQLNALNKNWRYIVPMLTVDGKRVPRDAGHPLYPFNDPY
Kind of assay: AKR1A1-catalysed glyceraldehyde reduction (inhibitor selectivity). The assay is classed as biochemical. The procedure: as §1
Catalytic properties were determined by measuring the decrease in absorbance at 340 nm at 37 °C (Cary 100 scan photometer, Varian, Pal Alto, CA, USA). A reaction mixture without inhibitor consisted of different concentrations of substrate (see Table 1 for details), 200 μM NADPH, 0.1 M NaH2PO4 buffer (pH 7.4) and an appropriate amount of enzyme in a total assay volume of 0.8 ml. […] The percentage of inhibition was calculated considering the activity in the absence of inhibitor to be 100%. […]

In assay [5] the target is T1, AKR1B1. Kind of assay: AKR1B1-catalysed glucose reduction (physiological substrate). The assay is classed as biochemical. The following applies: for Ki / IC50: glucose at KM 32 mM, mean ± SD; for Ki: Morrison equation; for IC50: at least three experiments; for mode of inhibition: with respect to the substrate glucose, IC50 at five substrate concentrations. The procedure: as §3, §2
(§4) In order to verify the inhibitory potency, enzyme-specific physiological substrates for AKR1B1 (glucose, KM = 32 mM) and AKR1B10 (farnesal; KM = 5 µM) were used to determine inhibition parameters. Enzyme inhibition parameters were assayed as described above. The inhibition mechanism of each compound for the respective enzymes was analysed by plotting IC50 values at different substrate concentrations (at least five inhibitor and substrate concentrations)[65]^,[66]. All data obtained were plotted and analysed using GraphPad Prism6 (GraphPad Software Inc., La Jolla, CA, USA).

For assay [6], the target named is T2, AKR1B10. Kind of assay: AKR1B10-catalysed farnesal reduction (physiological substrate). The assay is classed as biochemical. The following applies: for Ki / IC50: farnesal at KM 5 μM, mean ± SD; for Ki: Morrison equation; for IC50: at least three experiments; for mode of inhibition: with respect to the substrate farnesal, IC50 at five substrate concentrations. The procedure: as §3, §2, §4

Assay [7] has as its system AKR1B10. Further details: method as in PMID 26844556, PMID 27359042, PMID 28003428, PMID 26968129, PMID 21561086. The following applies: selective inhibitors identified so far; cited from earlier work.

T2 sequence (O60218 whole entry): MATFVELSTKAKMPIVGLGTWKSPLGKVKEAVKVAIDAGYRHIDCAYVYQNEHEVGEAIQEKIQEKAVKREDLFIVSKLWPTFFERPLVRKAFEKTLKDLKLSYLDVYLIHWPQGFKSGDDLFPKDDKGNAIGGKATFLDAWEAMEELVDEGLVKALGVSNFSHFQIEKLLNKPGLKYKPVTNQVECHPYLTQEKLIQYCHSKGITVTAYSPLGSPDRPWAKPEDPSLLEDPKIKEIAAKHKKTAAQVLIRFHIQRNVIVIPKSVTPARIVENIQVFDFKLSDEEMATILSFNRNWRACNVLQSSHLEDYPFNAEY

With `CC(C)=CCc1c(O)cc2c(c1O)C(=O)C[C@@H](c1ccc(O)cc1)O2` [6-PN, 6-prenylnaringenin], the IC50 in assay [1] was 6200 nM.

Consider `CC(C)=CCc1c(O)cc(O)c2c1O[C@H](c1ccc(O)cc1)CC2=O` [8-PN, 8-prenylnaringenin], for which the 50% inhibitory concentration (IC50) in assay [2] stood at 0.81 ± 0.03 µM; in assay [3], 990 ± 40 nM; in assay [5] it was 1870 ± 90 nM; in assay [6] it was 3960 ± 170 nM. Besides, the Ki is 0.3 ± 0.03 µM in assay [2], 520 ± 50 nM in assay [3], 710 ± 90 nM in assay [5] and 1950 ± 120 nM in assay [6]. The “mode of inhibition with respect to the co-factor binding site for NADPH” value (from here on “mode of inhibition … for NADPH”) in assay [2] is recorded as “non-competitive”. The “inhibitory potency, times greater as compared to that of 6-PN” value in assay [2] (ratio of AKR1B1 IC50 values, glyceraldehyde as substrate) worked out at 7.6 times. In addition, in assay [4], the “effect on the activity of AKR1A1” value is listed as “not affecting”. The mode of inhibition entry in assay [5] and in assay [6] was “uncompetitive” in each case.

Regarding `C[C@@]12CCC[C@H]1[C@@H]1C[C@@H](O)[C@@]3(O)C[C@@H](O)CC[C@]3(CO)[C@H]1CC2` [Androst-3β,5α,6β,19-tetrol], the IC50 in assay [7] was 860 nM.

For the molecule `COc1cc(O)c(CC=C(C)C)c2c1C(=O)CC(c1ccc(O)cc1)O2` (stereo not shown) [IX, isoxanthohumol], in assay [2], half-maximal inhibition (IC50) required 0.57 ± 0.02 µM, the Ki worked out at 0.17 ± 0.02 µM and the “mode of inhibition … for NADPH” value is listed as “uncompetitive”. In assay [3], this molecule gave an IC50 of 1090 ± 60 nM and a Ki of 520 ± 50 nM. The “effect on the activity of AKR1A1” value in assay [4] is “not affecting”. In assay [5], affinity was put at a Ki of 340 ± 60 nM, the IC50 stood at 880 ± 50 nM and the mode of inhibition result is “uncompetitive”. In assay [6], the Ki is 2250 ± 240 nM, half-maximal inhibition (IC50) was put at 4240 ± 230 nM and the mode of inhibition result is reported as “uncompetitive”.

`COc1cc(O)c(CC=C(C)C)c(O)c1C(=O)/C=C/c1ccc(O)cc1` [XN, xanthohumol]: in assay [2], inhibition was half-maximal at 9.11 ± 1.02 µM (IC50), the Ki came out at 5.29 ± 0.95 µM and the “mode of inhibition … for NADPH” value is on record as “non-competitive”. In assay [3], this molecule yielded an IC50 of 6560 ± 690 nM and an inhibitory constant (Ki) of 4560 ± 980 nM. Besides, the “effect on the activity of AKR1A1” value in assay [4] is “not affecting”. Further, in assay [5], the Ki was determined as 15100 ± 1650 nM, the IC50 was determined as 29200 ± 2300 nM and the mode of inhibition result is given as “uncompetitive”. In assay [6], the Ki amounted to 20100 ± 3730 nM, inhibition was half-maximal at 41400 ± 6860 nM (IC50) and the mode of inhibition entry is on record as “uncompetitive”.

As for `CC1(C)CC[C@]2(C(=O)O)CC[C@]3(C)C(=CC[C@@H]4[C@@]5(C)CC[C@H](O)C(C)(C)[C@@H]5CC[C@]43C)[C@@H]2C1` [oleanolic acid], the concentration for half-maximal inhibition (IC50) in assay [7] is 90 nM.

A word on the IC50: it is the concentration that inhibits the measured activity by half. The term Ki denotes the equilibrium dissociation constant of an inhibitor or competing ligand from its target.

The values are drawn from paper PMC6010053, “The hop-derived compounds xanthohumol, isoxanthohumol and 8-prenylnaringenin are tight-binding inhibitors of human aldo-keto reductases 1B1 and 1B10” (Journal of Enzyme Inhibition and Medicinal Chemistry, 2018).
